Reference: patent publication US20250144131A1, “POLYSACCHARIDE COMPOUND WITH A DEFINED MOLECULAR STRUCTURE FOR THE TREATMENT OF PULMONARY FIBROSIS” (SHENZHEN YANDAI INVESTMENT CO., LTD, priority 2023, published 2025)
Marks after values point to notes of the source that are not given here.

Key:
[1] = Mortality and body weight of LLC-bearing mice
Method: LLC cells in logarithmic growth phase at 1×10^7/mL were inoculated at 0.2 mL into the right axilla of 10 purchased normal male C57 mice. Tumor growth was monitored, and tumor-bearing mice were prepared. Once the tumor volume in tumor-bearing mice exceeded 200 mm^3, the tumor tissue was aseptically harvested to prepare a tissue cell suspension. This was mixed at a 1:1 (V:V) ratio with culture medium to create a tumor tissue homogenate. This homogenate was injected into the right axilla of 60 male C57 mice at 0.2 mL per mouse. When the tumor volume in these tumor-bearing mice exceeded 100 mm^3, mice with well-grown tumors without ulceration were selected and randomized into groups based on tumor volume as follows: model control group, cisplatin group (4 mg/kg), Kanglaite soft capsule group (1,404 mg/kg), cisplatin+Kanglaite soft capsule group (4+1,404 mg/kg), cisplatin+GLP-4 low-dose group (4+130 mg/kg), and cisplatin+GLP-4 high-dose group (4+1,170 mg/kg), with 8 mice per group. Additionally, 8 mice were selected as a normal control group. The cisplatin group received intraperitoneal injections of cisplatin, and the other groups were administered their respective drug solutions by gavage (20 mL/kg) or intraperitoneal injection (10 mL/kg), once daily for 27 consecutive days. After the last dose, blood was collected from the orbital plexus to test blood WBC, RBC, liver and kidney function indicators (ALT, AST, BUN, CRE), and CD3^+, CD4^+, and CD8^+ levels. Bone marrow smears were examined, and spleens, thymuses, and tumors were weighed. Histopathological examinations were conducted on the tumor, spleen, stomach, and kidneys.
Evaluation of quality of life and survival time in animals: Throughout the experimental process, detailed records were kept for each group of animals regarding weight, mortality, mental state, fur color, smoothness of fur, and fecal form, including incidences of diarrhea (if any).

LLC tumors = assay: Histopathology (H&E) of tumor, spleen, stomach and kidney in LLC-bearing mice; assay type: in vivo, C57 mice; settings: cisplatin 4, Kanglaite 1404, GLP-4 low-dose 130 mg/kg
Description: Histopathology examination: After the last dose, tissues from tumors, spleens, stomachs, and kidneys were collected for H&E staining to observe histopathological changes.

[2] = Mortality, survival time and body weight of H22-bearing mice; assay type: in vivo, C57 mice
Method: A homogenate suspension of H22 hepatoma solid tumors was injected subcutaneously under the axilla of 60 healthy male C57 mice to create a solid tumor model. Once all mouse tumors averaged a volume of about 180 mm^3, mice were randomized into groups based on tumor volume and were administered the respective drugs or drug solvents via oral gavage or intraperitoneal injection for 27 consecutive days. Longest and shortest diameters of tumors were measured every three days to calculate tumor volume, and mouse weights were recorded every three days. At the end of the experiment, tumors, spleens, and thymuses were harvested and weighed to calculate tumor, spleen, and thymus indices.

[3] = Mortality and body weight of orthotopic H22-bearing mice; settings: Kanglaite soft capsule 1404 mg/kg
Description: Liver cancer (H22) cells, labeled with Luc fluorescent marker at a concentration of 1×10^7 cells/mL, were initially inoculated into the peritoneal cavity of 8 male C57 mice. After the development of ascites, the ascitic fluid was aseptically extracted, washed with HBSS buffer, centrifuged to discard the supernatant, and stained with Trypan Blue, and cells in the ascitic fluid were counted under a microscope. The cell concentration was adjusted to […] with HBSS buffer and inoculated into the right hepatic region of 51 male C57 mice, at a volume of 10 μL per mouse, to prepare the orthotopic tumor-bearing mice. One week later, the liver tumor formation in mice was detected using a small animal in vivo imaging system. Based on tumor size, the mice were randomized into groups: model control group, cisplatin group (4 mg/kg), Kanglaite soft capsule group (1,404 mg/kg), cisplatin+Kanglaite soft capsule group (4+1,404 mg/kg), cisplatin+GLP-4 low-dose group (4+130 mg/kg), and cisplatin+GLP-4 high-dose group (4+1,170 mg/kg), with 6 mice per group. An additional 6 mice served as the normal control group. The normal control group and the model control group were administered pure water by oral gavage. The chemotherapy group received intraperitoneal injections of cisplatin, and the other groups were administered their respective drug solutions by oral gavage (20 mL/kg) or intraperitoneal injection (10 mL/kg), once daily for 14 consecutive days. After the last dose, blood was collected from the orbital plexus to test blood WBC, RBC, liver and kidney function indicators (ALT, AST, BUN, CRE), and CD3^+/CD4^+, CD3^+/CD8^+ ratios. The spleen, thymus, and tumors were weighed to calculate organ coefficients.
Animal survival and general condition: Weight was recorded weekly, along with any deaths among the animals.

[4] = 8 per group, cisplatin 4, Kanglaite 1404, GLP-4 low-dose 130 mg/kg

N.N.[Cl][Pt][Cl] [Cisplatin, cisplatin]
Number of deaths [1, 4]: 0
Number of surviving animals [1, 4]: 8
Weight ([1]; D1, cisplatin 4, Kanglaite 1404, GLP-4 low-dose 130 mg/kg): 14.1 ± 0.7 g
Weight ([1]; D4, cisplatin 4, Kanglaite 1404, GLP-4 low-dose 130 mg/kg): 14.5 ± 1.1 g
Mortality rate ([1]; cisplatin 4, Kanglaite 1404, GLP-4 low-dose 130 mg/kg): 0%
Tumor histopathology (LLC tumors): large areas of necrosis and hemorrhage were visible at the tumor center, with abundant tumor cells
Number of deaths ([2]; 8 per group, cisplatin 3, GLP-4 low-dose 50 mg/kg): 0
Survival time ([2]; 27 days dosing, cisplatin 3, GLP-4 low-dose 50 mg/kg): 27 ± 0 days
Weight ([2]; D0, cisplatin 3, GLP-4 low-dose 50 mg/kg): 22.8 ± 1^+ g
Weight ([2]; D9, cisplatin 3, GLP-4 low-dose 50 mg/kg): 22.2 ± 0.7^+ g
Weight ([2]; D12, cisplatin 3, GLP-4 low-dose 50 mg/kg): 21.9 ± 0.5^+ g
Weight ([2]; D15, cisplatin 3, GLP-4 low-dose 50 mg/kg): 21.3 ± 1*^+ g
Mortality rate ([2]; cisplatin 3, GLP-4 low-dose 50 mg/kg): 0%
Number of deaths ([3]; 6 per group, cisplatin 4 mg/kg): 3
Number of surviving animals ([3]; 6 per group, cisplatin 4 mg/kg): 3
Weight ([3]; W0, cisplatin 4 mg/kg): 18.5 ± 1.3 g
Weight ([3]; W1, cisplatin 4 mg/kg): 16.9 ± 1.8 ^ g
Weight ([3]; W2, cisplatin 4 mg/kg): 15.1 ± 1.6 g
Mortality rate ([3]; cisplatin 4 mg/kg): 50.0%
